For this test, the species on record is Rattus norvegicus. Description: Neuroprotective activity in Sprague-Dawley rat DA neuron death PD model assessed as inhibition of calcium mobilization at 50 uM after 10 days in presence of N-type voltage gated calcium channel blocker omega-conotoxin M7A. The format is functional. In general terms: Calcium flux is commonly read through the fluorescence of an indicator in the cells.

SMILES strings stand for the structures. Active and inactive are the calls of the source. The calls are words filed in the database; no cut-off is given here.

Consider `Nc1ccc2ncc(-c3ccccc3)nc2c1`, for which the inhibition entry was “Active”.

The values are drawn from ChEMBL document CHEMBL4431316, “New 6-Aminoquinoxaline Derivatives with Neuroprotective Effect on Dopaminergic Neurons in Cellular and Animal Parkinson Disease Models” (J Med Chem, 2016).
